Measurements taken from US20260091050A1, “ADVANTAGEOUS ANTI-HCV COMBINATION THERAPY” (Atea Pharmaceuticals, Inc., priority 2021, published 2026).
Where “and” joins values, the source holds several entries; their conditions need not be identical. Identical values can stand only once. Like-named read-outs stand apart in the source and are kept apart here.

Tests used:
[1] = Accelerated stability (40 ± 2° C./75 ± 5% RH) of Compound 1-A over 6 months; type: physicochemical
Method: (§1) Three conditions were tested: accelerated stability (40±2° C./[…]) over a 6-month time period, ambient stability (25±2° C./[…]) over a 9-month period, and stability under refrigerator conditions (5±3° C.) over a 9-month time period. The results for accelerated stability, ambient stability, and refrigerator conditions are shown in Table 23, Table 24, and Table 25, respectively.

[2] = Ambient stability (25 ± 2° C./60 ± 5% RH) of Compound 1-A over 9 months; type: physicochemical
Method: as §1

[3] = Plasma levels of Compound 1 and metabolites after single oral dose of Compound 1-A, rat; type: in vivo; conditions: 500 mg/kg single oral dose
[4] = Plasma levels of Compound 1 and metabolites after single oral dose of Compound 1-A, monkey; type: in vivo; conditions: for Compound 1 Tmax: Monkey, plasma
[5] = Heart and liver tissue levels of active triphosphate 4 hours after oral Compound 1-A, rat; type: in vivo; conditions: 4 hours after single oral dose
Method: (§2) High levels of the active TP were measured in the liver of all species tested.

[6] = Heart and liver tissue levels of active triphosphate 4 hours after oral Compound 1-A, dog; type: in vivo; conditions: 4 hours after single oral dose
Method: as §2

[7] = Head-to-head comparison of Compound 1 and Compound 1-A in dogs: plasma levels; type: in vivo; conditions: dog plasma
Method: A head-to-head comparison of dogs dosed with Compound 1 and Compound 1-A was conducted.

GT1 HCV = assay: Multiple dose study, 7 days QD, non-cirrhotic GT1 HCV-infected patients (Part C); type: in vivo, human
Method: (§3) Doses were administered as the Compound 1-A salt base. The free base Compound 1 equivalent is often given in parenthesis.
(§4) Part C was a randomized, double-blind, placebo-controlled MAD study divided into three cohorts. […] The dose escalation only proceeded following satisfactory review of the data.
(§5) HCV-infected patients were treatment-naïve with HCV RNA ≥5 log 10 IU/mL. HCV RNA was quantified using COBAS® AmpliPrep TaqMAN® v2.0 with LLQ of 15 IU/mL. Plasma drug levels were measured using LC-MS/MS. […] Mean ages of enrolled subjects were 44, 39, and 56 years in the non-cirrhotic GT1b 600 mg dose cohort, non-cirrhotic GT3 cohort, and the cirrhotic cohort, respectively.

GT3 HCV = assay: 600 mg QD for 7 days in non-cirrhotic GT3 HCV-infected patients (Part D); type: in vivo, human
Method: as §3, §4, §5

GT1, GT2, or GT3 HCV = assay: 600 mg QD for 7 days in Child-Pugh A cirrhotic patients with GT1, GT2 or GT3 HCV (Part E); type: in vivo, human; conditions: for Mean Max Reduction / Mean Reduction After 24 hours / HCV RNA < LOQ (15 IU/mL): 600 mg of Compound 1-A; for HCV RNA < LOQ (15 IU/mL): subjects/total
Method: Doses were administered as the Compound 1-A salt base. The free base Compound 1 equivalent is often given in parenthesis. […]
as §5

[8] = Three-part study (Parts C, D, E) of Compound 1-A: overall safety/tolerability and pharmacokinetics; type: in vivo, human
Method: as §4
HCV-infected patients were treatment-naïve with HCV RNA ≥5 log 10 IU/mL. […] Plasma drug levels were measured using LC-MS/MS.

HCV [9] = assay: Emax model: HCV RNA reduction on day 7 against AUC of metabolite 1-7; type: in vivo, human; conditions: after 7 days QD dosing, metabolite 1-7 exposures ≥2000 ng/mL×h
HCV [10] = conditions: cited from earlier work; for viral load reduction, individual: cirrhotic
[11] = 25 ± 2° C./60 ± 5% RH, 1st month
[12] = 25 ± 2° C./60 ± 5% RH, 3rd month
[13] = 25 ± 2° C./60 ± 5% RH, 6th month
[14] = 25 ± 2° C./60 ± 5% RH, 9th month
[15] = 600 mg of Compound 1-A, GT1, non-cirrhotic (n = 6)
[16] = 600 mg of Compound 1-A, GT3, non-cirrhotic (n = 6)

Structure (SMILES): CNc1nc(N)nc2c1ncn2[C@@H]1O[C@H](CO[P@@](=O)(N[C@@H](C)C(=O)OC(C)C)Oc2ccccc2)[C@@H](O)[C@@]1(C)F [Compound 1-A, isopropyl ((S)-(((2R,3R,4R,5R)-5-(2-amino-6-(methylamino)-9H-purin-9-yl)-4-fluoro-3-hydroxy-4-methyltetrahydrofuran-2-yl)methoxy) (phenoxy)phosphoryl)-L-alaninate hemisulfate]
- Appearance ([1]; 0 month): White
- Assay ([1]; 0 month): 98.8%
- IR ([1]; 0 month): correspond
- Related Substance 1 Any other single impurity ([1]; 0 month): 0.01%
- Related Substance 1 Total Impurities ([1]; 0 month): 0.01%
- Water ([1]; 0 month): 0.45%
- Appearance ([1]; 1st month): White
- Assay ([1]; 1st month): 101.5%
- Related Substance 1 Any other single impurity ([1]; 1st month): 0.02%
- Related Substance 1 Total Impurities ([1]; 1st month): 0.02%
- Water ([1]; 1st month): 0.21%
- Appearance ([1]; 3rd month): White
- Assay ([1]; 3rd month): 99.6%
- IR ([1]; 3rd month): correspond
- Related Substance 1 Any other single impurity ([1]; 3rd month): 0.01%
- Related Substance 1 Total Impurities ([1]; 3rd month): 0.02%
- Water ([1]; 3rd month): 0.36%
- Appearance ([1]; 6th month): White
- Assay ([1]; 6th month): 99.5%
- IR ([1]; 6th month): correspond
- Related Substance 1 Any other single impurity ([1]; 6th month): 0.05%
- Related Substance 1 Impurity F ([1]; 6th month): 0.01%
- Related Substance 1 Total Impurities ([1]; 6th month): 0.08%
- Related Substance 2 Impurity G ([1]; 6th month): no detection
- Water ([1]; 6th month): 0.41%
- Chemical stability (overall conclusion) ([1]; accelerated, ambient and refrigerator studies): very chemically stable
- Appearance ([2]; 25 ± 2° C./60 ± 5% RH, 0 month): White
- Assay ([2]; 25 ± 2° C./60 ± 5% RH, 0 month): 98.8%
- IR ([2]; 25 ± 2° C./60 ± 5% RH, 0 month): correspond
- Related Substance 1 Any other single impurity ([2]; 25 ± 2° C./60 ± 5% RH, 0 month): 0.01%
- Related Substance 1 Total Impurities ([2]; 25 ± 2° C./60 ± 5% RH, 0 month): 0.01%
- Water ([2]; 25 ± 2° C./60 ± 5% RH, 0 month): 0.45%
- Appearance [2, 11]: White
- Assay [2, 11]: 101.1%
- Related Substance 1 Any other single impurity [2, 11]: 0.01%
- Related Substance 1 Total Impurities [2, 11]: 0.02%
- Water [2, 11]: 0.19%
- Appearance [2, 12]: White
- Assay [2, 12]: 99.6%
- IR [2, 12]: correspond
- Related Substance 1 Any other single impurity [2, 12]: 0.03%
- Related Substance 1 Impurity B [2, 12]: 0.03%
- Related Substance 1 Impurity F [2, 12]: 0.02%
- Related Substance 1 Total Impurities [2, 12]: 0.11%
- Water [2, 12]: 0.29%
- Appearance [2, 13]: White solid
- Assay [2, 13]: 99.7%
- IR [2, 13]: correspond
- Related Substance 1 Any other single impurity [2, 13]: 0.02%
- Related Substance 1 Impurity F [2, 13]: 0.01%
- Related Substance 1 Total Impurities [2, 13]: 0.05%
- Water [2, 13]: 0.46%
- Appearance [2, 14]: Off-white
- Assay [2, 14]: 100.9%
- IR [2, 14]: correspond
- Related Substance 1 Any other single impurity [2, 14]: 0.02%
- Related Substance 1 Total Impurities [2, 14]: 0.02%
- Water [2, 14]: 0.20%
- percentage of water ([2]; after 9 months): 0.2000
- total related substance 1 impurities ([2]; after 9 months): 0.02%
- Compound 1 AUC0-last [3]: 60.9 ng·h/mL
- Compound 1 Cmax [3]: 70.5 ng/mL
- Compound 1 Tmax [3]: 15 min
- Compound 1 Tmax ([4]; 30 mg/kg single oral dose): 30 to 120 min
- Compound 1 Tmax ([4]; 100 mg/kg single oral dose): 60 to 120 min
- vomiting (animals affected) ([4]; monkeys, high dose group): ⅕
- active TP (metabolite 1-6) level in heart [5]: unquantifiable levels
- active TP (metabolite 1-6) level in liver [5]: High levels
- active TP (metabolite 1-6) level in heart [6]: Relatively low levels
- active TP (metabolite 1-6) level in liver [6]: High levels
- AUC(0-4 hr) of metabolite 1-7 compared to dosing with Compound 1 [7]: twice as great
- Mean Dose-normalized AUC(0-4 hr) for Compound 1 ([7]; normalized to a dose of 25 mg/kg, 25 mg/kg): 1.0 µM·h
- subjects achieving HCV RNA <LOQ (GT1 HCV; 600 mg QD, non-cirrhotic GT1b, LOQ=15 IU/mL): 50%
- Mean Max Reduction (GT1 HCV; [15]): 4.4 log10 IU/mL
- Mean Reduction After 24 hours (GT1 HCV; [15]): 2.1 log10 IU/mL
- HCV RNA < LOQ (15 IU/mL) (GT1 HCV; 600 mg of Compound 1-A, GT1, non-cirrhotic (n = 6), subjects/total): 3/6
- mean maximum HCV RNA reduction (GT3 HCV; 600 mg QD for 7 days, non-cirrhotic GT3): 4.6 log10 IU/mL and 4.5 log10 IU/mL
- Mean Max Reduction (GT3 HCV; [16]): 4.5 log10 IU/mL
- Mean Reduction After 24 hours (GT3 HCV; [16]): 2.4 log10 IU/mL
- HCV RNA < LOQ (15 IU/mL) (GT3 HCV; 600 mg of Compound 1-A, GT3, non-cirrhotic (n = 6), subjects/total): 1/6
- mean HCV RNA reduction (GT3 HCV; after the first dose of 600 mg, non-cirrhotic GT3): 2.4 log10 IU/mL
- mean maximum HCV RNA reduction (GT1, GT2, or GT3 HCV; 600 mg QD for 7 days, CPA cirrhotic): 4.4 log10 IU/mL and 4.6 log10 IU/mL
- Mean Max Reduction (GT1, GT2, or GT3 HCV; GT1, Child-Pugh A (n = 3)): 4.2 log10 IU/mL
- Mean Reduction After 24 hours (GT1, GT2, or GT3 HCV; GT1, Child-Pugh A (n = 3)): 2.4 log10 IU/mL
- HCV RNA < LOQ (15 IU/mL) (GT1, GT2, or GT3 HCV; GT1, Child-Pugh A (n = 3)): 1/3
- Mean Max Reduction (GT1, GT2, or GT3 HCV; GT3, Child-Pugh A (n = 1)): 4.8 log10 IU/mL
- Mean Reduction After 24 hours (GT1, GT2, or GT3 HCV; GT3, Child-Pugh A (n = 1)): 2.2 log10 IU/mL
- HCV RNA < LOQ (15 IU/mL) (GT1, GT2, or GT3 HCV; GT3, Child-Pugh A (n = 1)): 0/1
- HCV RNA reduction (GT1, GT2, or GT3 HCV; cirrhotic GT1, within the first 24 hours): 2.4 log10
- HCV RNA reduction (GT1, GT2, or GT3 HCV; cirrhotic GT3, within the first 24 hours): 2.2 log10
- impact of mild hepatic impairment on PK ([8]; based on plasma exposures): did not significantly impact
- low-grade lipid abnormalities (cholesterol and triglyceride increase) ([8]; compared to placebo): higher incidence
- tolerability ([8]; up to 600 mg salt form for seven days): well tolerated
- predicted maximal viral load reduction (HCV [9]): at least 4 log units
- viral load reduction (HCV [10]; cirrhotic participants): 4.6 log 10 IU/mL
- viral load reduction, individual (HCV [10]; GT1b, listed as bemnifosbuvir): 4.0 log 10 IU/mL (2×) and 4.5 log 10 IU/mL
- viral load reduction, individual (HCV [10]; GT2): 5.0 log 10 IU/mL
- viral load reduction, individual (HCV [10]; GT3, listed as bemnifosbuvir): 4.8 log 10 IU/mL and 5.2 log 10 IU/mL
- viral load reduction (HCV [10]; non-cirrhotic participants): 4.5 log 10 IU/mL
